Laboratory results: PubChem BioAssay AID2060603 (Molecular Pharmacology Branch, DTP, NCI, 2025)

Tested on: 422866-222-R5-J1-PDC spheroid viability
Test: Anticancer human tumor 422866-222-R5-J1-PDC patient-derived pancreatic adenocarcinoma cell line growth inhibition [CLK]
Conditions: spheroids with HUVEC and MSC; for IC50: curve of first compound; for viability, T/C: stronger effect = lower value
Source text: A high-throughput screen of multi-cell type tumor spheroids was designed to identify active combinations of […] and targeted small molecules. Complex spheroids include a stromal component modeled by human endothelial cells (HUVEC) and fibroblasts modeled by human mesenchymal stem cells (MSCs). The concentration ranges selected for each drug and investigational agent were based upon clinically achievable concentrations if the clinical Cmax of the agent was known.
Compounds. The drugs and investigational agents: cirtuvivint (SM08502; NSC835563), CC-671 (NSC850746), vemurafenib (NSC761431), tapotoclax (NSC804041), sotorasib (NSC818433), adagrasib (NSC831453), MRTX-1133 (NSC836407), BAY2416964 (NSC825713), copanlisib (NSC816437), inavolisib (NSC800729), abemaciclib (NSC768073), osimertinib (NSC779217), entinostat (NSC756642), eltanexor (KPT-8602, NSC794443), venetoclax (NSC766270), ceralasertib (NSC777638), bortezomib (NSC756655), olaparib (NSC753686), talazoparib (NSC767125), alisertib (NSC759677), peposertib (NSC802822), gemcitabine (NSC613327), 5-fluorouracil (NSC19893), SN-38 (NSC673596), oxaliplatin (NSC266046), paclitaxel (NSC125973), and doxorubicin (NSC123127), were obtained from the National Cancer Institute (NCI) Developmental Therapeutics Program Chemical Repository. The FDA-approved anticancer drug set is available from the Developmental Therapeutics Program at https://dtp.cancer.gov/organization/dscb/obtaining/available plates.htm. […] The stock solutions were prepared in dimethyl sulfoxide (DMSO, Sigma-Aldrich, St. Louis, MO, cat. D2650), except for the platinum complexes which were prepared in saline (Quality Biological, Gaithersburg, MD, cat. 114-055-101), at 800-fold the tested concentration and stored at -70 degrees C prior to their use. All drugs and investigational agents were tested over a range starting from a high concentration at or near the clinical Cmax and decreasing in half-log increments. If the clinical Cmax for an agent had not been determined, the highest concentration tested was 10 microM.
Cell Culture. All cells were maintained in an incubator at 37 degrees C and 5% CO2 with 95% humidity. The PDC lines were cultured according to standard operating procedures established by the NCI PDMR. Briefly, all PDCs were thawed and cultured in Matrigel-coated flasks prepared with a working solution of 1X Ham's F-12 nutrient mix, without supplementation (Invitrogen, Waltham, MA, cat. 11765054), 100 U/mL penicillin-streptomycin (Invitrogen, cat. 15140122), and 2.5% Matrigel (Corning Inc., Corning, NY, cat. 354248) for the first three passages. The 947758-054-R-J2-PDC line was cultured in 6B/Colon 1A media, which includes advanced DMEM/F-12 (Thermo Fisher Scientific, cat. 12634028), 10 mM HEPES (Thermo Fisher Scientific, cat. 15630080), 1X GlutaMAX supplement (Thermo Fisher Scientific, cat. 35050061), 0.1 mg/mL primocin (InvivoGen, cat. ant-pm-2), 10% defined fetal bovine serum, heat inactivated (HyClone Laboratories Inc., cat. SH30070.03HI), 1.25 mM N-Acetyl-L-cysteine (Sigma-Aldrich, cat. A9165), 10 mM nicotinamide (Sigma-Aldrich, cat. N0636), 1X B-27 supplement (Thermo Fisher Scientific, cat. 17504044), 1X N-2 supplement (Thermo Fisher Scientific, cat. 17502048), and 10 microM Y-27632 dihydrochloride (Tocris Bioscience, cat. 1254). The 876862-298-R-J1-PDC was cultured in 6E media, which includes all 6B/Colon 1A media components plus 50% L-WRN conditioned media (ATCC, cat. CRL-3276), 50 ng/mL recombinant human EGF recombinant protein (hEGF; Thermo Fisher Scientific, cat. PHG0311), 10 ng/mL recombinant human fibroblast growth factor 10 (hGFG-10; PeproTech, cat. 100-26), 1 ng/mL recombinant human fibroblast growth factor 2 (hFGF-2; PeproTech, cat. 100-18B), and 1 µM prostaglandin E2 (PGE2; Tocris, cat. 2296). The 227483-062-R1-J1-PDC line was cultured in Panc media, containing all 6E components except hFGF-2, with the addition of 500 nM SB-431542 (Selleckchem, cat. S1067) and 10 nM gastrin (Tocris, cat. 3006). […]

[1] = second compound 0.0316 µM, first compound 0.0316 µM
[2] = second compound 0.0316 µM, first compound 0.1 µM
[3] = second compound 0.0316 µM, first compound 0.316 µM
[4] = second compound 0.0316 µM, first compound 1 µM
[5] = second compound 0.0316 µM, first compound 3.16 µM
[6] = second compound 0.0316 µM, first compound 10 µM
[7] = second compound 0.1 µM, first compound 0.0316 µM
[8] = second compound 0.1 µM, first compound 0.1 µM
[9] = second compound 0.1 µM, first compound 0.316 µM
[10] = second compound 0.1 µM, first compound 1 µM
[11] = second compound 0.1 µM, first compound 3.16 µM
[12] = second compound 0.1 µM, first compound 10 µM
[13] = second compound 0.316 µM, first compound 0.0316 µM
[14] = second compound 0.316 µM, first compound 0.1 µM
[15] = second compound 0.316 µM, first compound 0.316 µM
[16] = second compound 0.316 µM, first compound 1 µM
[17] = second compound 0.316 µM, first compound 3.16 µM
[18] = second compound 0.316 µM, first compound 10 µM
[19] = second compound 1 µM, first compound 0.0316 µM
[20] = second compound 1 µM, first compound 0.1 µM
[21] = second compound 1 µM, first compound 0.316 µM
[22] = second compound 1 µM, first compound 1 µM
[23] = second compound 1 µM, first compound 3.16 µM
[24] = second compound 1 µM, first compound 10 µM
[25] = second compound 3.16 µM, first compound 0.0316 µM
[26] = second compound 3.16 µM, first compound 0.1 µM
[27] = second compound 3.16 µM, first compound 0.316 µM
[28] = second compound 3.16 µM, first compound 1 µM
[29] = second compound 3.16 µM, first compound 3.16 µM
[30] = second compound 3.16 µM, first compound 10 µM
[31] = second compound 10 µM, first compound 0.0316 µM
[32] = second compound 10 µM, first compound 0.1 µM
[33] = second compound 10 µM, first compound 0.316 µM
[34] = second compound 10 µM, first compound 1 µM
[35] = second compound 10 µM, first compound 3.16 µM
[36] = second compound 10 µM, first compound 10 µM
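Note: spheroids exposed to agents for seven days before readout.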

Structure (SMILES): C=CC(=O)N1CCN(c2nc(=O)n(-c3c(C)ccnc3C(C)C)c3nc(-c4c(O)cccc4F)c(F)cc23)C(C)C1 (stereo unspecified) + CN1CCN(c2cc(C(=O)Nc3cc4cc(-c5cnn(C)c5)ccc4cn3)ccn2)CC1
- IC50 (second compound 0.0316 µM): < 31.6 nM
- IC50 (second compound 0.1 µM): < 31.6 nM
- IC50 (second compound 0.316 µM): < 31.6 nM
- IC50 (second compound 1 µM): < 31.6 nM
- IC50 (second compound 3.16 µM): < 31.6 nM
- IC50 (second compound 10 µM): < 31.6 nM
- viability, T/C [1]: 44.6%
- viability, T/C [2]: 30.4%
- viability, T/C [3]: 40.1%
- viability, T/C [4]: 30.5%
- viability, T/C [5]: 29%
- viability, T/C [6]: 35.3%
- viability, T/C [7]: 46.9%
- viability, T/C [8]: 38.4%
- viability, T/C [9]: 36.6%
- viability, T/C [10]: 38.7%
- viability, T/C [11]: 35.1%
- viability, T/C [12]: 38.5%
- viability, T/C [13]: 42.7%
- viability, T/C [14]: 35.4%
- viability, T/C [15]: 29.9%
- viability, T/C [16]: 32.2%
- viability, T/C [17]: 33.9%
- viability, T/C [18]: 28.5%
- viability, T/C [19]: 20.9%
- viability, T/C [20]: 21.5%
- viability, T/C [21]: 21.2%
- viability, T/C [22]: 20.8%
- viability, T/C [23]: 17.6%
- viability, T/C [24]: 8.28%
- viability, T/C [25]: 4.94%
- viability, T/C [26]: 5.81%
- viability, T/C [27]: 5.39%
- viability, T/C [28]: 6.54%
- viability, T/C [29]: 6.25%
- viability, T/C [30]: 7.04%
- viability, T/C [31]: 0.98%
- viability, T/C [32]: 0.81%
- viability, T/C [33]: 0.76%
- viability, T/C [34]: 0.79%
- viability, T/C [35]: 0.84%
- viability, T/C [36]: 2.58%

Structure (SMILES): CCCS(=O)(=O)Nc1ccc(F)c(C(=O)c2c[nH]c3ncc(-c4ccc(Cl)cc4)cc23)c1F + CN1CCN(c2cc(C(=O)Nc3cc4cc(-c5cnn(C)c5)ccc4cn3)ccn2)CC1
- IC50 (second compound 0.0316 µM): > 10000 nM
- IC50 (second compound 0.1 µM): > 10000 nM
- IC50 (second compound 0.316 µM): > 10000 nM
- IC50 (second compound 1 µM): < 31.6 nM
- IC50 (second compound 3.16 µM): < 31.6 nM
- IC50 (second compound 10 µM): < 31.6 nM
- viability, T/C [1]: 111%
- viability, T/C [2]: 113%
- viability, T/C [3]: 136%
- viability, T/C [4]: 161%
- viability, T/C [5]: 179%
- viability, T/C [6]: 150%
- viability, T/C [7]: 108%
- viability, T/C [8]: 124%
- viability, T/C [9]: 137%
- viability, T/C [10]: 134%
- viability, T/C [11]: 168%
- viability, T/C [12]: 138%
- viability, T/C [13]: 95.9%
- viability, T/C [14]: 102%
- viability, T/C [15]: 98%
- viability, T/C [16]: 109%
- viability, T/C [17]: 133%
- viability, T/C [18]: 99.5%
- viability, T/C [19]: 31.4%
- viability, T/C [20]: 30.9%
- viability, T/C [21]: 32%
- viability, T/C [22]: 27.8%
- viability, T/C [23]: 31.4%
- viability, T/C [24]: 23.5%
- viability, T/C [25]: 8.19%
- viability, T/C [26]: 9.62%
- viability, T/C [27]: 11.2%
- viability, T/C [28]: 12.2%
- viability, T/C [29]: 16.5%
- viability, T/C [30]: 16.1%
- viability, T/C [31]: 1.72%
- viability, T/C [32]: 2.24%
- viability, T/C [33]: 2.24%
- viability, T/C [34]: 2.75%
- viability, T/C [35]: 2.94%
- viability, T/C [36]: 0.92%

Structure (SMILES): COC1C=CCC(C)C(C)S(=O)(=O)NC(=O)c2ccc3c(c2)N(CC2CCC21)CC1(CCCc2cc(Cl)ccc21)CO3 (stereo unspecified) + CN1CCN(c2cc(C(=O)Nc3cc4cc(-c5cnn(C)c5)ccc4cn3)ccn2)CC1
- IC50 (second compound 0.0316 µM): > 10000 nM
- IC50 (second compound 0.1 µM): > 10000 nM
- IC50 (second compound 0.316 µM): > 10000 nM
- IC50 (second compound 1 µM): < 31.6 nM
- IC50 (second compound 3.16 µM): < 31.6 nM
- IC50 (second compound 10 µM): < 31.6 nM
- viability, T/C [1]: 102%
- viability, T/C [2]: 102%
- viability, T/C [3]: 113%
- viability, T/C [4]: 98.1%
- viability, T/C [5]: 97%
- viability, T/C [6]: 76.8%
- viability, T/C [7]: 131%
- viability, T/C [8]: 104%
- viability, T/C [9]: 105%
- viability, T/C [10]: 107%
- viability, T/C [11]: 114%
- viability, T/C [12]: 94.7%
- viability, T/C [13]: 103%
- viability, T/C [14]: 92.8%
- viability, T/C [15]: 104%
- viability, T/C [16]: 99%
- viability, T/C [17]: 113%
- viability, T/C [18]: 105%
- viability, T/C [19]: 29.4%
- viability, T/C [20]: 28.8%
- viability, T/C [21]: 38.5%
- viability, T/C [22]: 28.9%
- viability, T/C [23]: 38.7%
- viability, T/C [24]: 39.2%
- viability, T/C [25]: 8.76%
- viability, T/C [26]: 9.13%
- viability, T/C [27]: 9.74%
- viability, T/C [28]: 7.9%
- viability, T/C [29]: 9.36%
- viability, T/C [30]: 5.17%
- viability, T/C [31]: 2.4%
- viability, T/C [32]: 1.91%
- viability, T/C [33]: 1.69%
- viability, T/C [34]: 1.81%
- viability, T/C [35]: 2.33%
- viability, T/C [36]: 3.52%
